{
  "source": "patent US9289444B2",
  "about": "“Composition for promoting hematogenesis containing quercetin 3-O-β-(2″-galloyl)-rhamnopyranoside as active ingredient” (Chungbuk National University Industry Academic Cooperation …, priority 2011, dated 2016)",
  "key": {"[1]": {"system": "bone marrow stromal cells", "assay": "Real-time RT-PCR of hematopoietic cytokine mRNA", "type": "cell-based, mouse", "text": "Bone marrow mononuclear cells (BMNCs) were isolated from femurs and tibias of 8 to 12-week-old male C57BL/6 mice by a previously described protocol [Kroeger K, Collins M, Ugozzoli (2009) The preparation of primary hematopoietic cell cultures from murine bone marrow for electroporation. J. Vis. Exp. 23: pii:1026. doi:10.3791/1026] and were separated from dead cells and red blood cells (RBCs) by Histopaque ([…]) (Sigma-Aldrich Chemical, St. Louis, Mo., USA) density gradient centrifugation. Thereafter, the cells were cultured in Iscove's modified Dulbecco's media (IMDM) with 15% heat inactivated fetal bovine serum (FBS), 1% bovine serum albumin (BSA), 100 units/ml penicillin and 100 μg/ml streptomycin at 37° C. in 5% CO2 humidified air. The separated blood was cultured as described previously [Oswald J, et al. (2004). Mesenchymal stem cells can be differentiated into endothelial cells in vitro. Stem Cells, 22: 377-384.] to obtain bone marrow stromal cells in α-minimum essential medium (MEM) with 20% heat inactivated FBS, 100 units/ml penicillin and 100 μg/ml streptomycin at 37° C. in 5% CO2 humidified air.\nTo confirm whether QGR regulates the expression of hematopoietic cytokines in bone marrow stromal cells, real-time RT-PCR was performed. Bone marrow stromal cells (3×10^5 cells/plate) were incubated with either mouse rIL-3 (100 units/ml) plus rSCF (5 units/ml) plus rEpo (3 units/ml) or QGR (50, 100 or 200 μM/ml) in 60 mm-diameter cell culture plates. The cells were harvested after 4 hr of incubation and washed with PBS and total RNA were extracted using RNA extraction kit (Applied Biosystems, Carlsbad, Calif., USA). First strand synthesis of cDNA was carried out with 1 μg of total RNA using cDNA synthesis kit (Applied Biosystems, Foster City, Calif., USA). Real-time PCR using TaqMan probe PCR master mix kit (Applied Biosystems) was performed according to the manufacturer's instruction using a model 7500 Real-Time PCR System (Applied Biosystems). GAPDH mRNA was utilized as an internal standard to normalize target transcript expression. The relative ratios of SCF, GM-CSF, or Epo mRNA to GAPDH mRNA which can be used to quantify precisely the levels of each mRNA expression, were calculated with the standard curves."}, "[2]": {"system": "bone marrow failure mouse induced by busulphan (BU)", "assay": "Semisolid colonogenic assay for BFU-E in BU bone marrow failure model", "type": "in vivo, Balb/c mice", "settings": "from 10 days to 63 days after QGR administration, vs positive control group", "description": "(§1) Bone marrow failure model induced by administering busulphan (BU) was designed according to the procedures previously described by Molyneux et al (Cell Biol Toxicol 27, 13-40, 2011) and the scheme is shown in FIG. 8. BU (Sigma chemicals, Poole, Dorset, UK) was dissolved in acetone to a final concentration of 18.8 mg/ml, diluted five-fold with distilled water, and was intraperitoneally administered three times for 5 days with the dose of 0.2 ml BU solution per mouse. Equal amount of five-fold diluted acetone solution without BU was administered to vehicle control group. QGR was dissolved in dimethylsulfoxide and diluted with distilled water to a final concentration of 1.25%. Mice were orally administered every two days with QGR (0.25 mg/mouse) for 63 days. Seven or eight mice were sacrificed on days of 1, 5, 10, 16, 25, 40, 49, and 63 after BU administration and were investigated to confirm the effect of QGR to recover bone marrow failure.\nIn order to investigate whether QGR has an activity to promote the differentiation from hematopoietic stem cells to BFU-E namely an erythroid progenitor in the damaged bone marrow induced by BU administration, the semisolid colonogenic assay was carried out. […] 14 days later, the number of BFU-E colony was counted."}, "[3]": {"system": "bone marrow failure mouse induced by busulphan (BU)", "assay": "Colony-forming unit-fibroblast (CFU-F) measurement from MSPCs in BU bone marrow failure model", "type": "in vivo, Balb/c mice", "settings": "decreased from day 10 in positive control group; p<0.05", "description": "as §1, with “Seven or eight mice were sacrificed on days of 1, 5, 10, 16, 25, 40, 49, and 63 after BU administration and were investigated to confirm the effect of QGR to recover bone marrow failure.” left out\nCFU-F, a progenitor cell colony differentiated from MSPCs is in the stage prior to being finally matured into mesenchymal cells such as osteoblast, vascular endothelial cells acting as hematopoietic stem cell niche. In order to investigate the effect of QGR on the formation and differentiation of mesenchymal stem cells, MSPCs were isolated and the number of CFU-F colonies of the respective groups was measured and compared to each other. […] All visible colonies were counted."}, "[4]": {"system": "bone marrow failure mouse induced by busulphan (BU)", "assay": "Histopathological features of bone marrow and osteoid formation in BU bone marrow failure model", "type": "in vivo, Balb/c mice", "description": "as §1\nIn order to confirm histological bone marrow damage induced by BU administration and to investigate whether QGR recovers the damaged bone marrow, histopathological features of H&E staining slide of the respective group's bone marrow were observed and compared to each other among the groups. In addition, the degree of sinusoid damage in bone marrow was graded as normal, hemorrhage or discontinuous, regressed vessel, assigned with numerical value and compared to each other among the groups. Moreover, in order to investigate the effect of QGR on the differentiation and maturation from mesenchymal stem cells to osteoblast, the formation of osteoid in humerus was comparatively analyzed. Goldner's trichrome staining was carried for osteoid and the stained area of the respective group was compared with each other after determining the stained area by using an image analyzer."}, "[5]": {"settings": "100 and 200 μM, vs rIL-3+rSCF+rEpo"}},
  "data": [
    {"compound": "CC1OC(Oc2c(-c3ccc(O)c(O)c3)oc3cc(O)cc(O)c3c2=O)C(OC(=O)c2cc(O)c(O)c(O)c2)C(O)C1O", "note": "(stereo not drawn) [QGR, quercetin 3-O-β-(2″-galloyl)-rhamnopyranoside]", "values": [
      {"measurement": "mRNA expression levels of SCF, GM-CSF and Epo", "setting": "[1]; 50, 100 or 200 μM/ml, 4 hrs, dose-dependent", "result": "increased"},
      {"measurement": "Epo mRNA compared to the positive control", "setting": "[1]; [5]", "result": "significantly increased"},
      {"measurement": "GM-CSF mRNA compared to the positive control", "setting": "[1]; [5]", "result": "significantly increased"},
      {"measurement": "SCF mRNA compared to the positive control", "setting": "[1]; all concentrations, vs rIL-3+rSCF+rEpo", "result": "significantly increased"},
      {"measurement": "number of BFU-E", "setting": "[2]", "result": "increased significantly and consistently"},
      {"measurement": "number of CFU-F", "setting": "[3]", "result": "recovered significantly"},
      {"measurement": "degree of osteoid formation", "setting": "[4]; Goldner's trichrome staining, vs positive control group", "result": "actively formed"},
      {"measurement": "number of cells in bone marrow of humerus (cellularity)", "setting": "[4]; H&E, vs positive control group", "result": "recovered"},
      {"measurement": "number of regressed sinusoid", "setting": "[4]; day 10", "result": "significantly decreased"},
      {"measurement": "number of normal sinusoid", "setting": "[4]; day 10, vs positive control group (BU)", "result": "greater"},
      {"measurement": "number of normal sinusoids", "setting": "[4]; day 63", "result": "increased"},
      {"measurement": "numbers of hemorrhagic sinusoids", "setting": "[4]; day 63", "result": "significantly decreased"},
      {"measurement": "numbers of regressed sinusoids", "setting": "[4]; day 63", "result": "significantly decreased"},
      {"measurement": "area of osteoid formation", "setting": "[4]; from day 10 after QGR administration, vs positive control group", "result": "increased significantly"},
      {"measurement": "number of megakaryocytes surrounding sinusoid", "setting": "[4]; from day 16 after QGR administration, vs positive control group", "result": "increased"},
      {"measurement": "sinusoidal endothelia in the bone marrow", "setting": "[4]; vs severely damaged sinusoids in positive control group", "result": "recovered sinosoids"}
    ]}
  ]
}
